Holding throughout (assay type): cell-based, human
The subject of test [1] is cancer cell lines. Put plainly: Cell viability analysis (WST-1) on cancer cell lines. The conditions noted are these: drug 10 μM, 72 hours, WST-1; Table 3. (Tetrazolium dyes change colour on reduction, which living cells bring about.)
Test [2] has as its system HI650 (Lung Adenocarcinoma). Put plainly: Cell viability analysis, lung cancer HI650. The conditions noted are these: Homo sapiens.
Test [3] deals with A549 (Lung Adenocarcinoma). In words: Cell viability analysis, lung cancer A549. Particulars: Homo sapiens.
Test [4] concerns AGS (Gastric Adenocarcinoma). In words: Cell viability analysis, gastric cancer AGS. Particulars: Homo sapiens.
The test system of test [5] is MKN-45 (Gastric Adenocarcinoma). Put plainly: Cell viability analysis, gastric cancer MKN-45. Particulars: Homo sapiens.
Test [6] concerns HepG2 (Hepatocellular Carcinoma). In words: Cell viability analysis, hepatic cancer HepG2. The conditions noted are these: Homo sapiens.
The subject of test [7] is LoVo (Colorectal Adenocarcinoma). Put plainly: Cell viability analysis, colon cancer LoVo. The conditions noted are these: Homo sapiens, LoVo.
The test system of test [8] is A375 (Amelanotic Melanoma). Put plainly: Cell viability analysis, skin cancer A375. The conditions noted are these: Homo sapiens.
Test [9] has as its system HeLa (Cervix Adenocarcinoma). Put plainly: Cell viability analysis, cervical cancer HeLa. Particulars: Homo sapiens, HeLa.
For test [10], the system named is PC3 (p53−) (Prostate Adenocarcinoma). Put plainly: Cell viability analysis, prostate cancer PC3. The conditions noted are these: Homo sapiens.
Test [11] concerns TSGH-8301 (Urinary Bladder Carcinoma). Put plainly: Cell viability analysis, bladder cancer TSGH-8301. The conditions noted are these: Homo sapiens.
The test system of test [12] is MCF7 (Mammary Gland, Adenocarcinoma). In words: Cell viability analysis, breast cancer MCF7. Particulars: Homo sapiens.
For test [13], the system named is HL-60 (Acute Promyelocytic Leukemia). In words: Cell viability analysis, leukemia HL-60. The conditions noted are these: Homo sapiens.
Setting [14] is: NCI-H1650, 72 h, read-out: cell viability (survival rate), H1650, drug 10 μM, 72 hours, WST-1, OD450 nm.
The mark [15] stands for this setting: A549, 72 h, read-out: cell viability (survival rate), A549, drug 10 μM, 72 hours, WST-1, OD450 nm.
Setting [16] is: 72 h, read-out: cell viability (survival rate), AGS, drug 10 μM, 72 hours, WST-1, OD450 nm.
Setting [17] is: MKN-45, 72 h, read-out: cell viability (survival rate), MKN-45, drug 10 μM, 72 hours, WST-1, OD450 nm.
Setting [18] is: HepG2, 72 h, read-out: cell viability (survival rate), HepG2, drug 10 μM, 72 hours, WST-1, OD450 nm.
The mark [19] stands for this setting: 72 h, read-out: cell viability (survival rate), LoVo, drug 10 μM, 72 hours, WST-1, OD450 nm.
Setting [20] is: A-375, 72 h, read-out: cell viability (survival rate), A375, drug 10 μM, 72 hours, WST-1, OD450 nm.
Setting [21] is: 72 h, read-out: cell viability (survival rate), HeLa, drug 10 μM, 72 hours, WST-1, OD450 nm.
[22] abbreviates: 72 h, read-out: cell viability (survival rate), PC3, drug 10 μM, 72 hours, WST-1, OD450 nm.
The mark [23] stands for this setting: 72 h, read-out: cell viability (survival rate), TSGH, drug 10 μM, 72 hours, WST-1, OD450 nm.
[24] abbreviates: MCF7, 72 h, read-out: cell viability (survival rate), MCF7, drug 10 μM, 72 hours, WST-1, OD450 nm.
[25] abbreviates: HL-60, 72 h, read-out: cell viability (survival rate), HL-60, drug 10 μM, 72 hours, WST-1, OD450 nm.

Counter-ions that a name gives are not always drawn. Like-named read-outs stand apart in the source and are kept apart here.

One may read the viability as a read-out of living cells in per cent, often relative to untreated cells. `C[C@@H]1CC[C@H]2[C@@H](C)C(=O)O[C@@H]3O[C@@]4(C)CC[C@@H]1[C@]32OO4` [Artemisinin]: the “inhibition effect on different cancer cell lines” value in test [1] is recorded as “significant inhibition effect”. The viability at 10 µM in [2] (setting [14]) was found to be 106%; in test [3] (setting [15]), 98.7%; in [4] (setting [16]), 87.7%; in [5] (setting [17]) it was 117%; in test [6] (setting [18]), 116%; in [7] (setting [19]), 104%. For the same compound, the viability at 10 µM in test [8] (setting [20]) amounted to 88.9%; in test [9] (setting [21]) it was 120%; in [10] (setting [22]) it was 92.5%; in test [11] (setting [23]), 63.6%; in test [12] (setting [24]) it was 151%; in [13] (setting [25]) it was 146%.

On to `CN(C/C=C/c1ccccc1)Cc1cccc2ccccc12` [Naftifine HCl], for which the “inhibition effect on different cancer cell lines” value in test [1] is “significant inhibition effect”. The viability at 10 µM in [2] (setting [14]) came to 72.3%; in test [3] (setting [15]), 127%; in test [4] (setting [16]), 104%; in test [5] (setting [17]), 58.5%; in test [6] (setting [18]), 91.2%; in test [7] (setting [19]) it was 86.3%. For the same compound, the viability at 10 µM in test [8] (setting [20]) was 63.3%; in test [9] (setting [21]), 80.6%; in [10] (setting [22]), 109%; in test [11] (setting [23]) it was 79.6%; in [12] (setting [24]) it was 84.5%; in test [13] (setting [25]), 93.2%.

Consider `CO[C@H]1/C=C/O[C@@]2(C)Oc3c(C)c(O)c4c(c3C2=O)C2=NC3(CCN(CC(C)C)CC3)NC2=C(NC(=O)/C(C)=C\C=C\[C@H](C)[C@H](O)[C@@H](C)[C@@H](O)[C@@H](C)[C@H](OC(C)=O)[C@@H]1C)C4=O` [Rifabutin (Mycobutin), Rifabutin], for which the “inhibition effect on different cancer cell lines” value in [1] is “significant inhibition effect”. Besides, the viability at 10 µM in test [2] (setting [14]) turned out to be 88.2%; in test [3] (setting [15]), 53.1%; in [4] (setting [16]), 115%; in [5] (setting [17]) it was 62.4%; in [6] (setting [18]), 148%; in test [7] (setting [19]) it was 104%. The viability at 10 µM in test [8] (setting [20]) came to 84%; in test [9] (setting [21]), 52.8%; in test [10] (setting [22]), 72.6%; in [11] (setting [23]), 82.5%; in test [12] (setting [24]) it was 48.8%; in test [13] (setting [25]) it was 100%.

Turning to `COC(=O)Nc1nc2ccc(Sc3ccccc3)cc2[nH]1` [Fenbendazole (Panacur), Fenbendazole], the “inhibition effect on different cancer cell lines” value in [1] is “significant inhibition effect”. The viability at 10 µM in test [2] (setting [14]) worked out at 60.2%; in test [3] (setting [15]), 40.9%; in test [4] (setting [16]), 29.9%; in [5] (setting [17]) it was 40.3%; in test [6] (setting [18]), 76.1%; in test [7] (setting [19]) it was 52.9%. The viability at 10 µM is 40.6% in [8] (setting [20]); 38.6% in test [9] (setting [21]); 42% in test [10] (setting [22]); 27.2% in test [11] (setting [23]); 55.8% in [12] (setting [24]); 66.6% in test [13] (setting [25]).

As to `Nc1ccc(S(=O)(=O)Nc2ncccn2)cc1` [Sulfadiazine], in test [1], the “inhibition effect on different cancer cell lines” value is given as “significant inhibition effect”. Further, the viability at 10 µM in test [2] (setting [14]) worked out at 69.2%; in [3] (setting [15]), 38.1%; in test [4] (setting [16]) it was 91.8%; in [5] (setting [17]) it was 44.4%; in test [6] (setting [18]), 114%; in test [7] (setting [19]) it was 93.6%. Moreover, the viability at 10 µM in [8] (setting [20]) is 79.5%; in [9] (setting [21]), 43.7%; in test [10] (setting [22]) it was 70.1%; in [11] (setting [23]) it was 80.4%; in test [12] (setting [24]), 37.2%; in test [13] (setting [25]) it was 106%.

For the compound `CC(N)C12CC3CC(CC(C3)C1)C2` (centres unmarked) [Rimantadine (Flumadine), Rimantadine], the “inhibition effect on different cancer cell lines” value in [1] was “significant inhibition effect”. Moreover, the viability at 10 µM in test [2] (NCI-H1650, 72 h, drug 10 μM, 72 hours, WST-1, OD450 nm, read-out: cell viability (survival rate), H1650) was 96.9%; in test [3] (A549, 72 h, drug 10 μM, 72 hours, WST-1, OD450 nm, read-out: cell viability (survival rate), A549), 111%; in [4] (72 h, drug 10 μM, 72 hours, WST-1, OD450 nm, read-out: cell viability (survival rate), AGS) it was 90.8%; in [5] (MKN-45, 72 h, drug 10 μM, 72 hours, WST-1, OD450 nm, read-out: cell viability (survival rate), MKN-45), 82.3%; in test [6] (HepG2, 72 h, drug 10 μM, 72 hours, WST-1, OD450 nm, read-out: cell viability (survival rate), HepG2), 87.7%; in test [7] (setting [19]), 95.7%. The viability at 10 µM in [8] (A-375, 72 h, drug 10 μM, 72 hours, WST-1, OD450 nm, read-out: cell viability (survival rate), A375) was found to be 70.3%; in test [9] (72 h, drug 10 μM, 72 hours, WST-1, OD450 nm, read-out: cell viability (survival rate), HeLa) it was 71.1%; in test [10] (72 h, drug 10 μM, 72 hours, WST-1, OD450 nm, read-out: cell viability (survival rate), PC3), 91.3%; in test [11] (72 h, drug 10 μM, 72 hours, WST-1, OD450 nm, read-out: cell viability (survival rate), TSGH) it was 126%; in [12] (MCF7, 72 h, drug 10 μM, 72 hours, WST-1, OD450 nm, read-out: cell viability (survival rate), MCF7), 97.1%; in test [13] (HL-60, 72 h, drug 10 μM, 72 hours, WST-1, OD450 nm, read-out: cell viability (survival rate), HL-60), 107%.

As to `NCCS(=O)(=O)O` [Taurine], in test [1], the “inhibition effect on different cancer cell lines” value is given as “significant inhibition effect”. Further, the viability at 10 µM worked out at 46.1% in test [2] (setting [14]); 84% in test [3] (setting [15]); 64.1% in [4] (setting [16]); 61.6% in [5] (setting [17]); 93.1% in [6] (setting [18]); 98.5% in [7] (setting [19]). In addition, the viability at 10 µM was 77.6% in [8] (setting [20]); 84.9% in test [9] (setting [21]); 61.1% in [10] (setting [22]); 110% in [11] (setting [23]); 91.5% in [12] (setting [24]); 116% in [13] (setting [25]).

For the compound `Clc1ccc(C(Cn2ccnc2)OCc2c(Cl)cccc2Cl)c(Cl)c1` (centres unmarked) [Isoconazole nitrate (Travogen), Isoconazole nitrate], in test [1], the “inhibition effect on different cancer cell lines” value is recorded as “significant inhibition effect”. Further, the viability at 10 µM in test [2] (NCI-H1650, drug 10 μM, 72 hours, WST-1, OD450 nm, read-out: cell viability (survival rate), H1650) amounted to 102%; in test [3] (A549, drug 10 μM, 72 hours, WST-1, OD450 nm, read-out: cell viability (survival rate), A549), 91.7%; in [4] (drug 10 μM, 72 hours, WST-1, OD450 nm, read-out: cell viability (survival rate), AGS), 74.8%; in test [5] (MKN-45, drug 10 μM, 72 hours, WST-1, OD450 nm, read-out: cell viability (survival rate), MKN-45), 126%; in [6] (HepG2, drug 10 μM, 72 hours, WST-1, OD450 nm, read-out: cell viability (survival rate), HepG2), 99.4%; in test [7] (drug 10 μM, 72 hours, WST-1, OD450 nm, read-out: cell viability (survival rate), LoVo) it was 102%. For the same compound, the viability at 10 µM in test [8] (A-375, drug 10 μM, 72 hours, WST-1, OD450 nm, read-out: cell viability (survival rate), A375) stood at 95%; in [9] (drug 10 μM, 72 hours, WST-1, OD450 nm, read-out: cell viability (survival rate), HeLa), 165%; in test [10] (drug 10 μM, 72 hours, WST-1, OD450 nm, read-out: cell viability (survival rate), PC3) it was 82.5%; in [11] (drug 10 μM, 72 hours, WST-1, OD450 nm, read-out: cell viability (survival rate), TSGH), 88.2%; in test [12] (MCF7, drug 10 μM, 72 hours, WST-1, OD450 nm, read-out: cell viability (survival rate), MCF7) it was 95.1%; in test [13] (HL-60, drug 10 μM, 72 hours, WST-1, OD450 nm, read-out: cell viability (survival rate), HL-60), 49.2%.
